Measured values published in publication PMC8621172, “Manipulating Estrogenic/Anti-Estrogenic Activity of Triphenylethylenes towards Development of Novel Anti-Neoplastic SERMs” (International Journal of Molecular Sciences, 2021).

Key:
MCF-7 cells = experiment: NCI growth inhibition on MCF-7 (single dose and five-dose, SRB); type: cell-based, human; details: for Growth Inhibition on MCF-7 (%) / inhibition at 10 µM: 10 µM; for inhibition at 10 µM / GI50: Homo sapiens, MCF7; for GI50: MCF-7, five-dose assay, 48 h
Description: Compounds were submitted to the Developmental Therapeutics Program (DTP) of the National Cancer Institute (NCI). The program uses a panel of 60 human tumor cell lines representing nine tissue types, including leukemia, non-small cell lung cancer (NSCLC), melanoma, colon cancer, ovarian cancer, CNS cancer, renal cancer, prostate cancer, and breast cancer, to screen for potential new anti-cancer agents. […] Primary screening of synthesized compounds was performed by testing a single high dose of 10 µM in the full NCI-60 panel. The percent growth of treated cells relative to the no-drug control and relative to the time zero number of cells was measured, and a mean graph was provided. The percentage inhibition was then calculated by subtracting the values obtained from 100.
All compounds were subjected to the NCI in vitro disease-oriented human cells screening panel assay. The human tumor cell lines of the cancer-screening panel are grown in RPMI 1640 medium containing 5% fetal bovine serum and 2 mM L-glutamine. For a typical screening experiment, cells are inoculated into 96-well microtiter plates in 100 μL at plating densities ranging from 5000 to 40,000 cells/well depending on the doubling time of individual cell lines. After cell inoculation, the microtiter plates are incubated at 37 °C, 5% CO2, 95% air, and 100% relative humidity for 24 h prior to the addition of experimental drugs. After 24 h, two plates of each cell line are fixed in situ with TCA to represent a measurement of the cell population for each cell line at the time of drug addition. Experimental drugs are solubilized in dimethyl sulfoxide at 400-fold the desired final maximum test concentration and stored frozen prior to use. At the time of drug addition, an aliquot of frozen concentrate is thawed and diluted to twice the desired final maximum test concentration with complete medium containing 50 μg/mL gentamicin. Additional four, 10-fold, or ½ log serial dilutions are made to provide a total of five drug concentrations plus control. Aliquots of 100 μL of these different drug dilutions are added to the appropriate microtiter wells already containing 100 μL of medium, resulting in the required final drug concentrations. Following drug addition, the plates are incubated for an additional 48 h at 37 °C, 5% CO2, 95% air, and 100% relative humidity. For adherent cells, the assay is terminated by the addition of cold TCA. Cells are fixed in situ by the gentle addition of 50 μL of cold 50% (w/v) TCA (final concentration, 10% TCA) and incubated for 60 min at 4 °C. The supernatant is discarded, and the plates are washed five times with tap water and air-dried. Sulforhodamine B (SRB) solution (100 μL) at 0.4% (w/v) in 1% acetic acid is added to each well, and plates are incubated for 10 min at room temperature. After staining, unbound dye is removed by washing five times with 1% acetic acid, and the plates are air-dried. Bound stain is subsequently solubilized with a 10 mM trizma base, and the absorbance is read on an automated plate reader at a wavelength of 515 nm. For suspension cells, the methodology is the same except that the assay is terminated by fixing settled cells at the bottom of the wells by gently adding 50 μL of 80% TCA (final concentration, 16% TCA). Compounds are screened at a dose of 10 µM, hits showing mean growth inhibition over 60 cell lines >50% are escalated for 5-dose screening assay. To construct a dose-response curve, about 60 cell lines of nine tumor subpanels were incubated with five concentrations (0.01–100 μM) for each compound. Three response parameters (GI50, TGI, and LC50) were calculated for each cell line.

[1] = system: Ishikawa endometrial adenocarcinoma cell line; experiment: Alkaline phosphatase (AlkP) activity in Ishikawa cells; type: cell-based, human; details: for Relative alkaline phosphatase activity: 72 h, DMSO set to 1; for effect on AlkP activity (in words): 72 h treatment, 5-dose assay 1 nM to 10 µM
Description: Alkaline phosphatase (AlkP) activity in these human endometrial cancer cells is markedly stimulated by estrogens.
Because of the potential SERM character of the compounds tested, their estrogenic effects were studied in an endometrial-derived cell culture model, the human endometrial adenocarcinoma cell line Ishikawa. […] All compounds were screened at two concentrations, 0.1 and 1 µM. Its agonistic effect was compared to the vehicle control DMSO (data shown in Supplementary Materials). […] The four compounds were studied in a concentration range of 1 nM to 10 µM.
Estrogens stimulate the activity of alkaline phosphatase (AlkP) in Ishikawa cells (human endometrial adenocarcinoma cells; kindly provided by Prof. Masato Nishida, National Hospital Organization, Kasumigaura Medical Center, Japan). This enzyme activity is estimated by using the chromogen substrate (4-nitrophenylphosphate). […] The procedure was modified by Littlefield et al., 1990 [42].
After 72 h incubation, cells were harvested, washed twice with PBS, and incubated at −80 °C for about 30 min to lyse the cells. After thawing, the lysates were resuspended in reaction buffer (274 mM mannitol, 100 mM CAPS, 4 mM MgCl2, pH 10.4) containing 4 mM p-nitrophenylphosphate (NPP). After incubation for 1 h in the dark, AlkP activity was assayed by using the hydrolysis of p-nitrophenylphosphate to p-nitrophenol at pH 10.4 and the spectrometric determination of the kinetic of the product formation at 405 nm. All compounds were tested in technical triplicates and biological triplicates. Statistical analysis was performed by analysis of variance (ANOVA) and Tukey’s post-hoc test with the significance level of p < 0.05.

Row | SMILES | Relative alkaline phosphatase activity ([1]; 1 µM) | inhibition at 10 µM (MCF-7 cells) [%] | other results
1 | COc1ccc(C(C)=C(c2ccc(O)cc2)c2ccc(Cl)cc2)cc1F [Compound 3, E/Z-4-[1-(4-Chlorophenyl)-2-(3-fluoro-4-methoxyphenyl)propenyl]-phenol] | 1.13 ± 0.43 | – | Growth Inhibition on MCF-7 (%) (MCF-7 cells): No inhibition
2 | COc1cc(C(C)=C(c2ccc(O)cc2)c2ccc(Cl)cc2)ccc1F [Compound 4, E/Z-4-[1-(4-Chlorophenyl)-2-(4-fluoro-3-methoxyphenyl)propenyl]-phenol] | 1.10 ± 0.39 | – | Growth Inhibition on MCF-7 (%) (MCF-7 cells): No inhibition
3 | CC(=C(c1ccc(Cl)cc1)c1ccc(OCCCN(C)C)cc1)c1ccccc1 [Compound 5, E/Z-(3-{4-[1-(4-Chloro-phenyl)-2-phenyl-propenyl]-phenoxy}-propyl)-dimethyl-amine] | 1.08 ± 0.33 | 55 | Relative alkaline phosphatase activity ([1]; 1 nM): 0.93 ± 0.64; Relative alkaline phosphatase activity ([1]; 10 nM): 0.95 ± 0.37; Relative alkaline phosphatase activity ([1]; 100 nM): 1.05 ± 0.30; Relative alkaline phosphatase activity ([1]; 10 µM): 0.21 ± 0.16; effect on AlkP activity (in words) [1]: No significant effects
4 | CC(=C(c1ccc(Cl)cc1)c1ccc(OCCN2CCCC2)cc1)c1ccccc1 [Compound 6, E/Z-1-(2-{4-[1-(4-Chloro-phenyl)-2-phenyl-propenyl]-phenoxy}-ethyl)-pyrrolidine] | 2.55 ± 1.35 | 66.2 | –
5 | CC(=C(c1ccc(Cl)cc1)c1ccc(OCCN2CCCCC2)cc1)c1ccccc1 [Compound 7, E/Z-1-(2-{4-[1-(4-Chloro-phenyl)-2-phenyl-propenyl]-phenoxy}-ethyl)-piperidine] | 2.55 ± 1.80 | 56.4 | –
6 | CC(=C(c1ccc(Cl)cc1)c1ccc(OCCN2CCOCC2)cc1)c1ccccc1 [Compound 8, E/Z-4-(2-{4-[1-(4-Chloro-phenyl)-2-phenyl-propenyl]-phenoxy}-ethyl)-morpholine] | 1.16 ± 0.15 | 30.9 | –
7 | CC(=C(c1ccc(Cl)cc1)c1ccc(OCCN2CCCCCC2)cc1)c1ccccc1 [Compound 9, E/Z-1-(2-{4-[1-(4-Chloro-phenyl)-2-phenyl-propenyl]-phenoxy}-ethyl)-azepane] | 2.94 ± 1.29 | 24 | –
8 | COc1ccc(C(C)=C(c2ccc(Cl)cc2)c2ccc(OCCCN(C)C)cc2)cc1 [Compound 10, E/Z-(3-{4-[1-(4-Chloro-phenyl)-2-(4-methoxy-phenyl)-propenyl]-phenoxy}-propyl)-dimethyl-amine] | 2.55 ± 1.80 | 63.1 | –
9 | COc1ccc(C(C)=C(c2ccc(Cl)cc2)c2ccc(OCCN3CCCC3)cc2)cc1 [Compound 11, E/Z-1-(2-{4-[1-(4-Chloro-phenyl)-2-(4-methoxy-phenyl)-propenyl]-phenoxy}-ethyl)-pyrrolidine] | – | 87 | GI50 (MCF-7 cells): 0.89 µM; Relative alkaline phosphatase activity ([1]; 1 nM): 1.25 ± 0.61; Relative alkaline phosphatase activity ([1]; 10 nM): 1.13 ± 0.31; Relative alkaline phosphatase activity ([1]; 100 nM): 1.75 ± 0.50; Relative alkaline phosphatase activity ([1]; 10 µM): 1.36 ± 0.38; effect on AlkP activity (in words) [1]: increase the AlkP activity in a dose-pendent manner
10 | COc1ccc(C(C)=C(c2ccc(Cl)cc2)c2ccc(OCCN3CCCCC3)cc2)cc1 [Compound 12, E/Z-1-(2-{4-[1-(4-Chloro-phenyl)-2-(4-methoxy-phenyl)-propenyl]-phenoxy}-ethyl)-piperidine] | – | 79.7 | GI50 (MCF-7 cells): 0.6 µM; Relative alkaline phosphatase activity ([1]; 1 nM): 0.95 ± 0.02; Relative alkaline phosphatase activity ([1]; 10 nM): 0.96 ± 0.01; Relative alkaline phosphatase activity ([1]; 100 nM): 1.14 ± 0.01; Relative alkaline phosphatase activity ([1]; 10 µM): 0.42 ± 0.13; effect on AlkP activity (in words) [1]: increase the AlkP activity in a dose-pendent manner
11 | COc1ccc(C(C)=C(c2ccc(Cl)cc2)c2ccc(OCCN3CCOCC3)cc2)cc1 [Compound 13, E/Z-4-(2-{4-[1-(4-Chloro-phenyl)-2-(4-methoxy-phenyl)-propenyl]-phenoxy}-ethyl)-morpholine] | 3.74 ± 2.05 | 1.21 | –
12 | COc1ccc(C(C)=C(c2ccc(Cl)cc2)c2ccc(OCCN3CCCCCC3)cc2)cc1 [Compound 14, E/Z-1-(2-{4-[1-(4-Chloro-phenyl)-2-(4-methoxy-phenyl)-propenyl]-phenoxy}-ethyl)-azepane] | 6.58 ± 2.24 | 63.5 | –
13 | COc1ccc(C(C)=C(c2ccc(Cl)cc2)c2ccc(OCCCN(C)C)cc2)cc1F [Compound 15, E/Z-(3-{4-[1-(4-Chlorophenyl)-2-(3-fluoro-4-methoxyphenyl)-propenyl]-phenoxy}-propyl)-dimethyl-amine] | 0.86 ± 0.12 | 87 | –
14 | COc1cc(C(C)=C(c2ccc(Cl)cc2)c2ccc(OCCCN(C)C)cc2)ccc1F [Compound 22, E/Z-(3-{4-[1-(4-Chlorophenyl)-2-(4-fluoro-3-methoxyphenyl)-propenyl]-phenoxy}-propyl)-dimethyl-amine] | – | 33.2 | –
15 | COc1cc(C(C)=C(c2ccc(Cl)cc2)c2ccc(OCCN3CCCC3)cc2)ccc1F [Compound 23, E/Z-1-(2-{4-[1-(4-Chlorophenyl)-2-(4-fluoro-3-methoxyphenyl)-propenyl]-phenoxy}-ethyl)-pyrrolidine] | – | 73.5 | –
16 | COc1cc(C(C)=C(c2ccc(Cl)cc2)c2ccc(OCCN3CCCCC3)cc2)ccc1F [Compound 24, E/Z-1-(2-{4-[1-(4-Chlorophenyl)-2-(4-fluoro-3-methoxyphenyl)-propenyl]-phenoxy}-ethyl)-piperidine] | – | 49.3 | –
17 | COc1cc(C(C)=C(c2ccc(Cl)cc2)c2ccc(OCCN3CCOCC3)cc2)ccc1F [Compound 25, E/Z-4-(2-{4-[1-(4-Chlorophenyl)-2-(4-fluoro-3-methoxyphenyl)-propenyl]-phenoxy}-ethyl)-morpholine] | – | 2.75 | –
18 | COc1cc(C(C)=C(c2ccc(Cl)cc2)c2ccc(OCCN3CCCCCC3)cc2)ccc1F [Compound 26, E/Z-1-(2-{4-[1-(4-Chlorophenyl)-2-(4-fluoro-3-methoxyphenyl)-propenyl]-phenoxy}-ethyl)-azepane] | – | 36.5 | –
19 | COc1cc(C(C)=C(c2ccc(Cl)cc2)c2ccc(OCCN(C)C)cc2)ccc1F [Compound 27, E/Z-(2-{4-[1-(4-Chlorophenyl)-2-(4-fluoro-3-methoxyphenyl)-propenyl]-phenoxy}-ethyl)-dimethyl-amine] | – | 68.3 | –
20 | CCN(CC)CCOc1ccc(C(=C(C)c2ccc(F)c(OC)c2)c2ccc(Cl)cc2)cc1 [Compound 28, E/Z-(2-{4-[1-(4-Chlorophenyl)-2-(4-fluoro-3-methoxyphenyl)-propenyl]-phenoxy}-ethyl)-diethyl-amine] | – | > 100 | GI50 (MCF-7 cells): 2.17 µM
